US8318186B2, “Use of at least a fatty ester for preparing a composition designed to inhibit 5-α-reductase activity, in pharmacology, in particular dermatology, in cosmetics and as food additive” (Laboratoires Expanscience, priority 2000, dated 2012)
Where “and” joins values, the source holds several entries; their conditions need not be identical. Equal values may be shown once. Marks after values point to notes of the source that are not given here.

Legend:
[1] = tested on: normal human dermal fibroblasts; experiment: Morphological examination of the fibroblasts (Example 4); assay type: cell-based; conditions: at 10 and 100 μg/ml
[2] = tested on: 5α-reductase; experiment: Fatty acid esters on 5α-reductase activity, conversion of testosterone to 5α-dihydrotestosterone in normal human dermal fibroblast cultures (Example 4); assay type: cell-based; parameters: key to group by 5α-reductase inhibitory activity: group A with the highest inhibitory activity; group B with an intermediate inhibitory activity; conditions: for inhibition of the 5α-reductase activity: Example 4, p<0.05; for 5α-DHT formed per culture well, mean / 5α-DHT formed per culture well, single well: after 24 of incubation, DMSO 0.1% (v/v); for 5α-DHT formed per culture well, single well: single replicate; for group by 5α-reductase inhibitory activity: tested at 1, 10 and 100 μg/ml
Experimental: The fibroblast culture medium (FCM) consisted of MEM/M199 (3:1, v/v) supplemented with penicillin (50 IU/ml), streptomycin (50 μg/ml), sodium bicarbonate (0.2%, w/v) and FCS (10%, v/v).
The assay system consisted of normal human dermal fibroblasts cultured as a monolayer. The fibroblasts were isolated from a residue from abdominal plastic surgery performed on a person (subject BIOPREDIC No. I0013). The cells were used at the fifth passage; they were cultured until the monolayers were confluent in FCM medium at 37° C. in a humid atmosphere containing 5% CO2.
The fibroblast incubation medium (FIM) consisted of FCM supplemented with tritiated testosterone (1.6×10^−7 M, that is 6.32 μCi/ml) and nonradiolabeled testosterone (3.84×10^−6 M)
The test products and finasteride were taken up in DMSO before being diluted in the incubation medium. […]
The fibroblast cultures were preincubated in the presence of the test products or of the reference product for 2 hours before adding the substrate, testosterone. For this step, the test products and the reference product were prepared in the FCM medium.
After preincubation, the fibroblast cultures were incubated in the presence of the test products or of the reference product prepared in the FIM medium for 22 hours at 37° C. in a humid atmosphere containing 5% CO2. Control cultures were incubated in the FIM medium in the absence of test products and of reference product. […]
Each experimental condition was tested in triplicate.
After the incubation period, the cells were subjected to the action of ultrasound in the FIM medium. The cellular lysates thus obtained were extracted with dichloromethane. After evaporation, the dry residues were taken up in methanol and were deposited on 60F254 silica plates (MERCK, reference 5554).
The migration solvent was a mixture of dichloromethane and ether (7:3, v/v) At the end of the migration, the silica plates were read using a BERTHOLD radioactivity scanner.
The metabolizing of testosterone to 5α-dihydro-testosterone under the various experimental conditions was calculated: the results (areas of the 5α-dihydrotestosterone peaks counted by the BERTHOLD scanner) were expressed in pmol of 5α-dihydro-testosterone formed per culture well. They were also expressed as a percentage of the 5α-reductase activity present in the “DMSO control” group.
The groups of data (control group and treated groups) were treated by a one-way analysis of variance (ANOVA 1, p<0.05), followed by a DUNNETT's test (p<0.05). The effect of the test products and of the reference product was compared with the “DMSO control” group. The effects of the test products were compared to each other by a two-way analysis of variance (ANOVA 2, p<0.05, factor 1=concentration and factor 2=treatment).
The same materials and methods are used as in example 3 above.
It was proposed to evaluate the effect of fatty acid esters on the 5α-reductase activity. An in vitro model of normal human dermal fibroblast cultures was selected. The products tested were chosen from the group of fatty acid esters varying in the length and the functionality of the fatty chain, and the nature of the alkoxy group. These esters are the following: methyl oleate, methyl linoleate, methyl stearate, methyl laurate, methyl undecylenate, butyl oleate, oleyl oleate and methyl ricinoleate.

In the case of CCCCCCCC/C=C\CCCCCCCCOC(=O)CCCCCCC/C=C\CCCCCCCC [Oleyl oleate, oleyl oleate], the “state of the fibroblasts by morphological examination of the cells” value [1] is reported as “cellular suffering”, the “5α-reductase activity as percentage of the “DMSO 0.1% (v/v)” group” value ([2]; 1 μg/ml) is reported as 72 percentage of the “DMSO 0.1% (v/v)” group and the “inhibition of the 5α-reductase activity” value ([2]; 1 μg/ml) is reported as 28%. For the same compound, the “5α-DHT formed per culture well, mean” value ([2]; 1 μg/ml) was 8.17* +/− pmol of 5α-DHT formed/culture well, the “5α-DHT formed per culture well, single well” value ([2]; 1 μg/ml) was 9.00 pmol of 5α-DHT formed/culture well and 7.32 pmol of 5α-DHT formed/culture well and 8.20 pmol of 5α-DHT formed/culture well and the “5α-reductase activity as percentage of the “DMSO 0.1% (v/v)” group” value ([2]; 10 μg/ml) was 55 percentage of the “DMSO 0.1% (v/v)” group. The “inhibition of the 5α-reductase activity” value ([2]; 10 μg/ml) was 45%, the “5α-DHT formed per culture well, mean” value ([2]; 10 μg/ml) was 6.25* +/− pmol of 5α-DHT formed/culture well and the “5α-DHT formed per culture well, single well” value ([2]; 10 μg/ml) was 6.12 pmol of 5α-DHT formed/culture well and 6.44 pmol of 5α-DHT formed/culture well and 6.20 pmol of 5α-DHT formed/culture well. The “5α-reductase activity as percentage of the “DMSO 0.1% (v/v)” group” value ([2]; 100 μg/ml) was 65 percentage of the “DMSO 0.1% (v/v)” group, the “inhibition of the 5α-reductase activity” value ([2]; 100 μg/ml) was 35% and the “5α-DHT formed per culture well, mean” value ([2]; 100 μg/ml) was 7.45* +/− pmol of 5α-DHT formed/culture well. The “5α-DHT formed per culture well, single well” value ([2]; 100 μg/ml) was 6.28 pmol of 5α-DHT formed/culture well and 8.60 pmol of 5α-DHT formed/culture well and 7.48 pmol of 5α-DHT formed/culture well and the “group by 5α-reductase inhibitory activity” value [2] was “A”.

In the case of CCCCCCCCCCCC(=O)OC [Methyl laurate, methyl laurate], the “5α-reductase activity as percentage of the “DMSO 0.1% (v/v)” group” value ([2]; 1 μg/ml) is reported as 57 percentage of the “DMSO 0.1% (v/v)” group, the “5α-DHT formed per culture well, mean” value ([2]; 1 μg/ml) is reported as 6.49* +/− pmol of 5α-DHT formed/culture well and the “5α-DHT formed per culture well, single well” value ([2]; 1 μg/ml) is reported as 5.76 pmol of 5α-DHT formed/culture well and 6.88 pmol of 5α-DHT formed/culture well and 6.84 pmol of 5α-DHT formed/culture well. The “5α-reductase activity as percentage of the “DMSO 0.1% (v/v)” group” value ([2]; 10 μg/ml) was 77 percentage of the “DMSO 0.1% (v/v)” group, the “5α-DHT formed per culture well, mean” value ([2]; 10 μg/ml) was 8.75 pmol of 5α-DHT formed/culture well and the “5α-DHT formed per culture well, single well” value ([2]; 10 μg/ml) was 6.84 pmol of 5α-DHT formed/culture well and 9.88 pmol of 5α-DHT formed/culture well and 9.52 pmol of 5α-DHT formed/culture well. The “5α-reductase activity as percentage of the “DMSO 0.1% (v/v)” group” value ([2]; 100 μg/ml) was 86 percentage of the “DMSO 0.1% (v/v)” group, the “5α-DHT formed per culture well, mean” value ([2]; 100 μg/ml) was 9.80 pmol of 5α-DHT formed/culture well and the “5α-DHT formed per culture well, single well” value ([2]; 100 μg/ml) was 8.48 pmol of 5α-DHT formed/culture well and 11.96 pmol of 5α-DHT formed/culture well and 8.96 pmol of 5α-DHT formed/culture well. For the same compound, the “group by 5α-reductase inhibitory activity” value [2] was “B”.
